From patent publication US20220249416A1, “SYNERGISTIC COMBINATIONS OF SYNTHETIC LYSINE ANALOGS, DERIVATIVES, MIMETICS, OR PRODRUGS AND PHARMACEUTICAL AGENTS FOR ENHANCED EFFICACY” (priority 2019, published 2022)

Columns and labels:
HSV Strain 17syn+ = test: Acyclovir escape mutants after 10 serial passages in rabbit skin cells; type: cell-based, Herpes Simplex Virus; details: 10 passages, 50 μM acyclovir alone or with 2% tranexamic acid; plated with 100 μM acyclovir vs. none
[1] = system: HO-1, a clinical isolate of HSV-1 that is multiple drug resistant; test: Viral yields of multiple drug resistant HSV-1 isolate HO-1, plaque assay; type: cell-based, Herpes Simplex Virus Type 1; details: 2% tranexamic acid, MOI 5, 24 hpi
cold sores = test: Topical tranexamic acid on cold sore outbreaks in human subjects; type: in vivo
HSV-1 = test: Effect of 2% TA on HSV-1 DNA replication; type: cell-based, Herpes Simplex Virus Type 1; details: MOI 0.05 and 0.5
rabbit skin cells = details: 48 h

| SMILES | Ratio of Acyclovir Resistant (ACVr) Virus (HSV Strain 17syn+) | effect on HO-1 viral yields [1] | time to resolution of cold sore outbreak symptoms (cold sores; 3% (w/v) topically several times a day, three human subjects) | cold sore outbreaks during one year (usual 3 to 5) (cold sores; 3 to 10% (w/v) applied to face daily for approximately one year, one subject) | time to healing of cold sore (cold sores; 5% (w/v) aqueous solution, about 0.25 mL, 5 times, one subject) | outcome of cold sore outbreak (cold sores; 10% (w/v) topically a single time, one subject) | replication of HSV DNA (HSV-1) | CC50 (rabbit skin cells) |
| --- | --- | --- | --- | --- | --- | --- | --- | --- |
| Nc1nc2c(ncn2COCCO)c(=O)[nH]1 [Acyclovir, acyclovir] | 0.0044 | – | – | – | – | – | – | – |
| NC[C@H]1CC[C@H](C(=O)O)CC1 [tranexamic acid] | – | effective | ≤ 48 h | one | ≤ 36 h | the blister was gone and the outbreak had ceased | significantly reduces the replication of HSV DNA | 320 mM |
